Experimental data as given in patent US10206937B2, “Boronic acid derivatives and therapeutic uses thereof” (Qpex Biopharma, Inc., priority 2014, dated 2019).
Like-named read-outs stand apart in the source and are kept apart here.

Assays:
NDM-1 [1] = target: T1, NDM-1 (Klebsiella pneumoniae, UniProt C7C422); assay: biochemical
VIM-1 = target: T2, VIM-1 (Pseudomonas aeruginosa, UniProt A0A0F7KYQ8); assay: biochemical; conditions: cleavage of nitrocefin (200 uM) by VIM-1 supernatant
T2 construct: made in house; host or cells: ECM6711 strain carrying pUCP24-VIM-1 plasmid; culture supernatant used unpurified

OXA-48 = OXA-48 (Klebsiella pneumoniae, UniProt Q6XEC0); assay: Inhibition of purified class D carbapenemase OXA-48 (Ki, carbapenem substrates); assay type: biochemical
[2] = target: T3, purified class A, C and D enzymes (UniProt P0AD64, L31Q/G234S/E235K, species not given); assay type: biochemical; conditions: read-out: Ki (SHV-12, NCF); purified SHV-12; nitrocefin reporter substrate
T3 construct: Ki (SHV-12, NCF); other: purified SHV-12; nitrocefin reporter substrate
T3 sequence (P0AD64 1-286 L31Q/G234S/E235K): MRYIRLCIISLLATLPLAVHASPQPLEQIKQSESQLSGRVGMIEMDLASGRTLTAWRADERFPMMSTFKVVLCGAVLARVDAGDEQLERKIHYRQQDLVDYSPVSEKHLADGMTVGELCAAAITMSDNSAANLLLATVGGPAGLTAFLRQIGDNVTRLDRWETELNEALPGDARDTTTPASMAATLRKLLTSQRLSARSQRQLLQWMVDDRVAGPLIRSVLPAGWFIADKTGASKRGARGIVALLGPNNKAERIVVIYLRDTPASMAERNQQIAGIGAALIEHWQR

[3] = target: T4, purified class A, C and D enzymes (UniProt Q6XEC0); assay type: biochemical; conditions: read-out: Ki (OXA-48, NCF); purified OXA-48; nitrocefin reporter substrate
T4 construct: rows headed: Ki (OXA-48, NCF); other: purified OXA-48; nitrocefin reporter substrate

[4] = test system: strains of Enterobacteriaceae overexpressing various carbapenemases (class A and B); assay: organism not typed; assay type: cell-based
Source text: Several strains simultaneously expressing both class A and class B carbapenemases, which were constructed using conjugation, were also included in the panel.

KPC-2 = KPC-2 (Klebsiella pneumoniae, UniProt Q9F663); assay: Inhibition of purified class A carbapenemase KPC-2 (Ki, carbapenem substrates); assay type: biochemical
NDM-1 [5] = target: T1, NDM-1; assay: Inhibition of purified class B carbapenemase NDM-1 (Ki, imipenem substrate); assay type: biochemical; conditions: NDM-1, substrate imipenem; read-out: Ki NDM-1, Imipenem
[6] = target: T5, purified class A, C and D enzymes (UniProt Q9F663); assay type: biochemical; conditions: read-out: Ki (KPC-2, NCF); purified KPC-2; nitrocefin reporter substrate
T5 construct: rows headed: Ki (KPC-2, NCF); other: purified KPC-2; nitrocefin reporter substrate

[7] = target: purified class A, C and D enzymes (Enterobacter cloacae, UniProt P05364); assay type: biochemical; conditions: purified P99/AmpC of ECL; nitrocefin reporter substrate
[8] = target: purified class A, C and D enzymes (Escherichia coli, UniProt Q9L5C7); assay type: biochemical; conditions: purified CTX-M-14; nitrocefin reporter substrate
[9] = test system: strains of Enterobacteriaceae producing various carbapenemases (class A, D and B; 104 strains); assay: Antibiotics potentiation by Compound 27 (MIC; meropenem, doripenem, ertapenem, cefepime); assay type: cell-based; conditions: Compound 27 at a fixed concentration of 4 μg/ml
[10] = cleavage of biapenem (100 uM) by NDM-1, read-out: Ki, Biapenem
[11] = cleavage of imipenem (100 uM) by NDM-1, read-out: Ki, Imipenem
[12] = cleavage of meropenem (100 uM) by NDM-1, read-out: Ki, Meropenem
[13] = cleavage of biapenem by OXA-48, read-out: Ki, Biapenem
[14] = cleavage of imipenem by OXA-48, read-out: Ki, Imipenem
[15] = cleavage of meropenem by OXA-48, read-out: Ki, Meropenem
[16] = cleavage of tebipenem by OXA-48, read-out: Ki, Tebipenem
[17] = cleavage of biapenem by KPC-2, read-out: Ki, Biapenem
[18] = cleavage of doripenem by KPC-2, read-out: Ki, Doripenem
[19] = cleavage of imipenem by KPC-2, read-out: Ki, Imipenem
[20] = cleavage of meropenem by KPC-2, read-out: Ki, Meropenem
[21] = cleavage of tebipenem by KPC-2, read-out: Ki, Tebipenem
[22] = cleavage of doripenem by OXA-48, read-out: Ki, Doripenem
[23] = cleavage of tebipenem (100 uM) by NDM-1, read-out: Ki, Tebipenem
[24] = purified KPC-2, substrate biapenem, read-out: Ki KPC-2, Biapenem
[25] = purified OXA-48, substrate biapenem, read-out: Ki OXA-48, Biapenem

KPC-2, sequence (Q9F663 25-293 limits assumed): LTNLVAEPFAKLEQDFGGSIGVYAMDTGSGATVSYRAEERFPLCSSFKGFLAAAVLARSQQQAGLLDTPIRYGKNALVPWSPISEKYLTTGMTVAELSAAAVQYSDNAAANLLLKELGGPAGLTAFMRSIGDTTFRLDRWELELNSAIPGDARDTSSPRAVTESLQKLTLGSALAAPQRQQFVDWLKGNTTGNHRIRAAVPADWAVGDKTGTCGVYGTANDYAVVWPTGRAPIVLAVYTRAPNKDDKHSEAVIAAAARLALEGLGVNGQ
OXA-48, sequence (Q6XEC0 23-265, looked up): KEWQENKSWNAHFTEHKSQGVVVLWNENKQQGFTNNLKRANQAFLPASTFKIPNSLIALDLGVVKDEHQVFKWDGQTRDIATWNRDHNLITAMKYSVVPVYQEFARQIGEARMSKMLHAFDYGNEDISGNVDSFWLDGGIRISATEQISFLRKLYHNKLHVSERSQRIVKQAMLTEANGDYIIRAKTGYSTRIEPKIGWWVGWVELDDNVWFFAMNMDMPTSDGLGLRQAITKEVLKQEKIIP
T1 sequence (C7C422 29-270, looked up, species assumed): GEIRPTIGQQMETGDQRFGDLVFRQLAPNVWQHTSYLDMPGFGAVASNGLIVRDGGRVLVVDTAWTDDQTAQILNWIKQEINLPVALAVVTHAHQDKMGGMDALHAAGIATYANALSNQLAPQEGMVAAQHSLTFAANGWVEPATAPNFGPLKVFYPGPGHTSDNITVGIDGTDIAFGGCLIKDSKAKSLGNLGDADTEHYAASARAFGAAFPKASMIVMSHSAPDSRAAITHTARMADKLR
purified class A, C and D enzymes (Enterobacter cloacae, UniProt P05364), sequence (P05364 21-381): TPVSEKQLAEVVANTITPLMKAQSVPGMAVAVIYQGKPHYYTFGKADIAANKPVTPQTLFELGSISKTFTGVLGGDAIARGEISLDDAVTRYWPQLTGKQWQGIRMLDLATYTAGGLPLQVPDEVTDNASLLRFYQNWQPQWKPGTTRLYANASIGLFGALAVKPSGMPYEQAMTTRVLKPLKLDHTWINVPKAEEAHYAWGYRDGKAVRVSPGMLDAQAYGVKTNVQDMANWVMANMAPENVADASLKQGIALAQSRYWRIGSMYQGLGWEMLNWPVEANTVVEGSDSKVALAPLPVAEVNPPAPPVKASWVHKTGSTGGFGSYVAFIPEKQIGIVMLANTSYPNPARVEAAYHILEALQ
purified class A, C and D enzymes (Escherichia coli, UniProt Q9L5C7), sequence (Q9L5C7 entry or part of it): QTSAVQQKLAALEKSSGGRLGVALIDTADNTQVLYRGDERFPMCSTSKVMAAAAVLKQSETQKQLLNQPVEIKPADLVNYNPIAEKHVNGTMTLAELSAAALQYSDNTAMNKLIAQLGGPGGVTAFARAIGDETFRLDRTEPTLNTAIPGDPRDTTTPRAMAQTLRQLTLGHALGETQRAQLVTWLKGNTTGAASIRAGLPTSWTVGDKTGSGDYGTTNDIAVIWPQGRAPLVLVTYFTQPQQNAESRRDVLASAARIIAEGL

Nn1cnnc1S[C@H]1Cc2cccc(C(=O)O)c2OB1O [Compound 14, (R)-3-(4-amino-4H-1,2,4-triazol-3-ylthio)-2-hydroxy-3,4-dihydro-2H-benzo[e][1,2]oxaborinine-8-carboxylic acid]
Ki (NDM-1 [1]; [10]): < 10 nM | Ki (NDM-1 [1]; [11]): < 10 nM | Ki (NDM-1 [1]; [12]): < 10 nM | IC50 (VIM-1): < 1000 nM | Ki (OXA-48; [13]): 10 to 100 nM | Ki (OXA-48; [14]): 10 to 100 nM | Ki (OXA-48; [15]): > 100 nM | Ki (OXA-48; [16]): > 100 nM | Ki [2]: < 100 nM | Ki [3]: < 100 nM | carbapenem MIC (imipenem, meropenem) [4]: significantly reduced

Nc1nnc(S[C@H]2Cc3ccc(F)c(C(=O)O)c3OB2O)s1 [Compound 23, (R)-3-(5-amino-1,3,4-thiadiazol-2-ylthio)-7-fluoro-2-hydroxy-3,4-dihydro-2H-benzo[e][1,2]oxaborinine-8-carboxylic acid]
Ki (NDM-1 [1]; [11]): 10 to 100 nM | IC50 (VIM-1): ≥ 1000 nM | Ki (KPC-2; [17]): < 10 nM | Ki (KPC-2; [18]): < 10 nM | Ki (KPC-2; [19]): 10 to 100 nM | Ki (KPC-2; [20]): < 10 nM | Ki (KPC-2; [21]): < 10 nM | Ki (OXA-48; [13]): < 10 nM | Ki (OXA-48; [22]): < 10 nM | Ki (OXA-48; [14]): < 10 nM | Ki (OXA-48; [15]): < 10 nM | Ki (OXA-48; [16]): < 10 nM | Ki (NDM-1 [5]): 10 to 100 nM | Ki [2]: < 100 nM | Ki [3]: < 100 nM | Ki [6]: < 100 nM

COc1ccc2c(c1C(=O)O)OB(O)[C@@H](Sc1nnc(N)s1)C2 [Compound 27, (R)-3-(5-amino-1,3,4-thiadiazol-2-ylthio)-2-hydroxy-7-methoxy-3,4-dihydro-2H-benzo[e][1,2]oxaborinine-8-carboxylic acid]
Ki (NDM-1 [1]; [10]): 10 to 100 nM | Ki (NDM-1 [1]; [11]): 10 to 100 nM | Ki (NDM-1 [1]; [12]): < 10 nM | Ki (NDM-1 [1]; [23]): 10 to 100 nM | IC50 (VIM-1): < 1000 nM | Ki (KPC-2; [17]): < 10 nM | Ki (KPC-2; [18]): < 10 nM | Ki (KPC-2; [19]): 10 to 100 nM | Ki (KPC-2; [20]): < 10 nM | Ki (KPC-2; [21]): < 10 nM | Ki (KPC-2; [24]): 10 to 100 nM | Ki (OXA-48; [13]): < 10 nM | Ki (OXA-48; [22]): < 10 nM | Ki (OXA-48; [14]): < 10 nM | Ki (OXA-48; [15]): < 10 nM | Ki (OXA-48; [16]): < 10 nM | Ki (OXA-48; [25]): 10 to 100 nM | Ki (NDM-1 [5]): 10 to 100 nM | Ki (P99/AmpC of ECL, NCF) [7]: Y (0.1 μM to 1 μM) | Ki (CTX-M-14, NCF) [8]: X (Less than 0.1 μM) | Ki [2]: < 100 nM | Ki [3]: < 100 nM | Ki [6]: < 100 nM | antibiotics MIC (meropenem, doripenem, ertapenem, cefepime) [9]: significantly reduced

CSc1ccc2c(c1C(=O)O)OB(O)[C@@H](Sc1nnc(N)s1)C2 [Compound 30, (R)-3-(5-amino-1,3,4-thiadiazol-2-ylthio)-2-hydroxy-7-(methylthio)-3,4-dihydro-2H-benzo[e][1,2]oxaborinine-8-carboxylic acid]
Ki (NDM-1 [1]; [10]): 10 to 100 nM | Ki (NDM-1 [1]; [11]): 10 to 100 nM | Ki (NDM-1 [1]; [12]): < 10 nM | Ki (NDM-1 [1]; [23]): 10 to 100 nM | IC50 (VIM-1): < 1000 nM | Ki (KPC-2; [17]): < 10 nM | Ki (KPC-2; [18]): < 10 nM | Ki (KPC-2; [19]): 10 to 100 nM | Ki (KPC-2; [20]): < 10 nM | Ki (KPC-2; [21]): < 10 nM | Ki (KPC-2; [24]): 10 to 100 nM | Ki (OXA-48; [13]): < 10 nM | Ki (OXA-48; [22]): < 10 nM | Ki (OXA-48; [14]): < 10 nM | Ki (OXA-48; [15]): < 10 nM | Ki (OXA-48; [16]): < 10 nM | Ki (OXA-48; [25]): 10 to 100 nM | Ki (NDM-1 [5]): 10 to 100 nM | Ki (P99/AmpC of ECL, NCF) [7]: X (Less than 0.1 μM) | Ki (CTX-M-14, NCF) [8]: X (Less than 0.1 μM) | Ki [2]: < 100 nM | Ki [3]: < 100 nM | Ki [6]: < 100 nM
